Experimental data: ChEMBL document CHEMBL1134971, “Novel human histamine H(3) receptor antagonists” (Bioorg Med Chem Lett, 2002)

Experiments:
Histamine H3 receptor [1] = molecular target: T1, Histamine H3 receptor (Homo sapiens, UniProt Q9Y5N1); test: Binding affinity for human histamine H3 receptor
[2] = molecular target: Histamine H3 receptor (Rattus norvegicus) (UniProt Q9QYN8); test: Ex-vivo effective dose required for rat histamine H3 receptor occupancy by the compound using [3H]R-alpha-methylhistamine upon subcutaneous administration
Histamine H3 receptor [3] = molecular target: T1, Histamine H3 receptor; test: Compound was tested for its binding affinity against human histamine H3 receptor
[4] = Oral bioavailability in rat; assay type: ADME, organism-based; settings: in vivo, read-out: Bioavailabiility
[5] = Half life in rat was tested; assay type: ADME, organism-based; settings: in vivo
Histamine H3 receptor [6] = molecular target: T2, Histamine H3 receptor (Rattus norvegicus, UniProt Q9QYN8); test: Antagonist activity for rat histamine H3 receptor was determined; assay type: functional; settings: read-out: pA2 (converted)
Histamine H3 receptor [7] = molecular target: T2, Histamine H3 receptor; test: Compound was tested for its binding affinity for rat histamine H3 receptor

T1 sequence (Q9Y5N1 whole entry): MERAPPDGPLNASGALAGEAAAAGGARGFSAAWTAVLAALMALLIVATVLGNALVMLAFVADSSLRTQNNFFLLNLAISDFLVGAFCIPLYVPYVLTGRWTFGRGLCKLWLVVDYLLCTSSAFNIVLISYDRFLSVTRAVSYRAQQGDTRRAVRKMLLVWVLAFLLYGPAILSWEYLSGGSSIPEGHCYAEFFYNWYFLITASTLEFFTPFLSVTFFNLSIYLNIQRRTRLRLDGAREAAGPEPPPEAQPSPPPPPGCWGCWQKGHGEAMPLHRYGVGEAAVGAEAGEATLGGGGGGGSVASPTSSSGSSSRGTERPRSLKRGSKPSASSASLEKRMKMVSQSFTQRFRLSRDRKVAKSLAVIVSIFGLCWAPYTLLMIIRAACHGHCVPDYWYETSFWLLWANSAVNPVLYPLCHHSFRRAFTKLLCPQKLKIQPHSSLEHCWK
T2 sequence (Q9QYN8 whole entry): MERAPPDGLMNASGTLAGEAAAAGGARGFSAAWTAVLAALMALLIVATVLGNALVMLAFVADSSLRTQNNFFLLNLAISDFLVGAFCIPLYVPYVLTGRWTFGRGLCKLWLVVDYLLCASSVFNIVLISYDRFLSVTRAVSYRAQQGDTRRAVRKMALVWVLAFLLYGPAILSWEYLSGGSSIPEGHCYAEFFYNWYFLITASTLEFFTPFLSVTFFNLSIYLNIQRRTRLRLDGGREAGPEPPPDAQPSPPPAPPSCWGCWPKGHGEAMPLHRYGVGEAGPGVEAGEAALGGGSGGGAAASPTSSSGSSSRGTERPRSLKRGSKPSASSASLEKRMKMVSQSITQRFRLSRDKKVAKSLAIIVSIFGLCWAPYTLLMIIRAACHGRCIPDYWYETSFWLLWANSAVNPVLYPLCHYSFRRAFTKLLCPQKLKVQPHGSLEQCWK
Histamine H3 receptor (Rattus norvegicus), sequence (Q9QYN8 whole entry): as above

Row | SMILES | Ki (Histamine H3 receptor [1]) | further results
1 | CCCCN(CCCC)CCCOc1ccc(-c2nc3c(C)cccn3c2C)cc1 | 870 nM | 
2 | Cc1cccn2cc(-c3ccc(OCCCN(C(C)c4ccccc4)C(C)c4ccccc4)cc3)nc12 (configuration not stated) | 4000 nM | 
3 | Cc1ccn2cc(-c3ccc(C#CCCN4CCCCC4)cc3)nc2c1 | 7 nM | 
4 | Cc1cccn2cc(-c3ccc(OCCCn4ccnc4)cc3)nc12 | 1000 nM | 
5 | S=C(NC1CCCCC1)N1CCC(c2cnc[nH]2)CC1 |  | ED50 [2]: 2 mg/kg
6 | Cc1cccn2cc(-c3ccc(NCCCN4CCCCC4)cc3)nc12 | 15 nM | 
7 | Cc1cc(-c2cn3ccccc3n2)ccc1OCCCN1CCCCC1 | 28 nM | 
8 | Cc1ccn2cc(-c3ccc(/C=C/CCN4CCCCC4)cc3)nc2c1 | 22 nM | 
9 | Cc1cccn2cc(-c3ccc(NC(=O)CCN4CCCCC4)cc3)nc12 | 300 nM | 
10 | COc1cc(-c2cn3ccc(C)cc3n2)ccc1OCCCN1CCCCC1 | 69 nM | 
11 | Cc1cccn2cc(-c3ccc(OCCCN4CCOCC4)cc3)nc12 | 80 nM | 
12 | CCCCN(CCCC)CCCOc1ccc(-c2cn3cccc(C)c3n2)cc1 |  | Ki (Histamine H3 receptor [3]): 4 µM
13 | CCCN(CCC)CCCOc1ccc(-c2cn3cccc(C)c3n2)cc1 | 43 nM | 
14 | Cc1ccn2cc(-c3ccc(OCCCN4CCCC4)cc3)nc2c1 | 5 nM | 
15 | Cc1ccn2cc(-c3ccc(CCCCN4CCCCC4)cc3)nc2c1 | 17 nM | 
16 | Cc1cccn2cc(-c3ccc(OCCCN(C)C)cc3)nc12 | 13 nM | 
17 | CCCCN(CCCC)CCCOc1ccc(-c2cn3cccc([N+](=O)[O-])c3n2)cc1 | 11000 nM | 
18 | Cc1ccn2cc(-c3ccc(OCCCN4CCCCC4)cc3)nc2c1 |  | bioavailability [4]: 57%; half-life [5]: 312 min; ED50 [2]: 0.2 mg/kg; Kb (Histamine H3 receptor [6]): 4.68 nM; Ki (Histamine H3 receptor [7]): 10 nM
19 | Cc1ccn2cc(-c3ccc(OCCCN4CCCCCC4)cc3)nc2c1 | 6 nM | 
20 | Cc1cccn2cc(-c3ccc(OCCCN4CCCCC4)cc3)nc12 | 3 nM | 
21 | Cc1ccn2cc(-c3ccc(OCCCN4CCCCC4)cc3C)nc2c1 | 2 nM | 
22 | Cc1cccn2cc(-c3ccc(NS(=O)(=O)CCCN4CCCCC4)cc3)nc12 | 500 nM | 
23 | c1ccn2cc(-c3ccc(OCCCN4CCCCC4)cc3)nc2c1 | 6 nM | 
